Assay results reported in patent US20250154607A1, “ISOTHERMAL AMPLIFICATION OF PATHOGENS” (priority 2021, published 2025).
In brackets after ≈: the same amount, converted by molar mass.

How the values were obtained:
[1] = target: T1, 9° Nm™ DNA polymerase (Thermococcus sp., UniProt Q56366, E143D); experiment: APA amplification of Neisseria gonorrhea DNA with SDS, with or without HPβCD; format: biochemical; conditions: 4% HPβCD, lyophilized reagents, 500 copies N. gonorrhea genomic DNA
Experimental: This example provides SDS complexation analyses of the methods and compositions provided herein. […] Anionic detergent SDS at >0.01% is inhibitory to APA amplification of DNA, but the presence of the protective agent hydroxypropyl β-CD (βCD) allowed amplification to proceed despite≤0.2% SDS. The kinetics of hydroxypropyl β-CD sequestration of SDS were thus sufficiently rapid at a molar ratio of 2:1 (˜14 mM: −7 mM) to prevent 9° Nm™ DNA polymerase inactivation by SDS.
Standard APA reactions with or without 4% Sigma 389145 HPβCD containing “hot-start” CleanAmp™ deoxynucleotides (CAdNTP) and a sequence-specific molecular beacon detection probe were performed with lyophilized ((supplemented with dextran 40, Trehalose), FIG. 2B) or “wet” (no HPβCD, FIG. 2A) reagents including Tris pH 8.4, KCl, MgSO4, and (NH4)2SO4 Triton X-100, 9° Nm™ DNA polymerase, CAdNTP, primers and probe. For the lyophilized reactions, samples were prepared in 50 μl solution containing MgSO4, and (NH4)2SO4 with (shapes) or without (dashed) 500 copies of N. gonorrhea genomic DNA. After dried reagents were dissolved with the samples, various amounts of SDS were added, as indicated, and solutions were vortexed. For the wet reactions, 45 μl master mix containing all reaction components was added to 5 μl sample containing 1OX SDS (final concentration as indicated), with and without 500 copies of N. gonorrhea genomic DNA. Activation of CAdNTP by 2 minutes 90° C. was followed by APA at 68° C. for 10 minutes with detection of the NG amplification product by fluorescence collected every 15 seconds.

[2] = tested on: influenza B RNA; experiment: Reverse-transcription APA detection of influenza B RNA with SDS and lyophilized reagents containing cyclodextrin; format: biochemical; conditions: 0.2% SDS lysis solution, 500 IU influenza B RNA, 4% betaCD in lyophilized reagents
Experimental: APA was performed with lyophilized reagents (including β-cyclodextrin, dNTPs, 35 units reverse transcriptase, KCl, EGTA (or EDTA), Tx-100, Tween 80, poly rA, Tris pH8.4, dextran 40k, 4% betaCD, trehalose, primers, probe, 9° Nml™)
After two minutes at 58° C. (to facilitate reverse transcription) the temperature was raised to 68° C. for APA and fluorescence detection.

[3] = tested on: Chlamydia trachomatis elementary bodies; experiment: Lysis of Chlamydia trachomatis elementary bodies, read out by APA; conditions: APA reaction mix containing 4% cyclodextrin HP-βCD
Experimental: Elementary body lysis (˜40/reaction) was probed in this example using an APA-based assay. Elementary bodies (Acrometrix) were added to either cold chlamydia transport media (SPD containing sucrose, phosphate buffer, and glutamic acid), TE (Tris-EDTA 10-1), or lysis buffer containing 0.4% SDS, pH 2.2. The samples in TE or SDS were heated 5 minutes at 95° C. (heat lysis) or 2 minutes at 78° C. (SDS lysis), respectively. Then 5 μl (containing 40 elementary bodies) was added to “wet” APA reaction mix as above (pH 7.6 to facilitate isothermal CAdNTP activation) containing 4% cyclodextrin HP-βCD for isothermal APA (68° C.) with fluorescence from a chlamydia-specific molecular beacon collected every 15 seconds.

[4] = target: T1, 9° Nm™ DNA polymerase; experiment: Order-of-addition assay (APA of S. enterica DNA, SDS and hydroxypropyl β-CD); format: biochemical; conditions: 4% hydroxypropyl β-CD added prior to 0.4% SDS
Experimental: Order-of-addition assay: Detection time dependent on cyclodextrin addition prior to brief interaction of enzymes with SDS. Since SDS rapidly and irreversibly inactivated 9° Nm™ DNA polymerase, when the enzyme is instead simultaneously exposed to SDS and β-CD, the kinetics of complexation of the latter two substances must be very rapid, compared with the rate of interaction between SDS and the enzyme.
FIG. 6 depicts data related to detection of S. enterica DNA target (50,000 copies) by APA reactions in a wet “hot-start” format mediated by CleanAmp™ deoxynucleotides (CAdNTP) containing Tris pH7.6, KCl, (NH4)2SO4, MgSO4, Triton X-100, SYBRI, CAdNTP, 9° Nm™ DNA polymerase, with additions of 0.4% SDS (X), 4% hydroxypropyl β-CD (squares), SDS then immediately β-CD (circles), or β-CD then SDS (solid line) with mixing. Control (ctrl dotted line) was no additions. All samples included DNA target. Isothermal APA was at 68° C., collecting intercalating dye fluorescence every 15 seconds to monitor all exponential DNA amplification. […] Negative controls for each condition without S. enterica DNA confirmed specificity of indicated amplification products (not shown).

[5] = target: T1, 9° Nm™ DNA polymerase; experiment: APA amplification of Chlamydia trachomatis DNA with CTAB, with or without HP-βCD; format: biochemical
Experimental: APA reactions containing CAdNTP and sequence-specific molecular beacon detection probes were performed as above in lyophilized (with HP-βCD; FIG. 3B) or wet reactions (no HP-βCD; FIG. 3A) and various amounts of the cationic detergent CTAB, without (“NTC”) or with the addition of 500 copies of C. trachomatis total cell DNA. Activation of CAdNTP by heating 2 minutes at 90° C. was followed by APA at 68° C. with fluorescence collected every 15 seconds.

[6] = cited from earlier work
[7] = target: T2, RNase A (Bos taurus, UniProt P61823); experiment: RNaseAlert assay of RNase A inactivation with CTAB and DTT after sequestration by HP-βCD; format: biochemical; conditions: for RNase A inactivation, activity upon sequestration of the detergent: 68° C.; for RNase A activity after CTAB sequestration by 4% HP-βCD: 20 ng RNase A, various temperatures
T2 sequence (P61823 27-150): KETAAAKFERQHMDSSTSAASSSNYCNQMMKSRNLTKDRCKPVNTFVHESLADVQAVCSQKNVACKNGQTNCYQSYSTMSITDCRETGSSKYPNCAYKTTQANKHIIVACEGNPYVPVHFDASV
Experimental: FIG. 7 depicts data related to the effect of DTT on the irreversibility of RNase A inactivation in the presence of CTAB at various temperatures. To simulate authentic reaction conditions, standard APA reaction reagents lacking 9° Nm™ DNA polymerase but containing 4% HP-βCD were prepared in a lyophilized format. The lyophilized reagents also contained the RNaseAlert® assay substrate, a synthetic quenched RNA probe which releases fluorescence in the presence of active RNase A. Reagents were preincubated 2 minutes and dissolved at the indicated temperatures with […] solutions containing 20 ng RNase A ([…]) with (dotted lines) or without (shapes) 10 mM DTT which had also been preincubated at the indicated temperatures on a Bio-Rad CFx thermocycler with programmed temperature gradient.
FIG. 8 depicts data related to effect of DTT and HP-βCD on RNase A inactivation. An RNase Alert assay was used to study the effect of DTT and 0.2% cationic detergent CTAB on RNase inactivation. RNase A was spiked into solutions containing 0.2% CTAB which were then mixed with lyophilized APA reagent pellets lacking enzymes but containing RNase Alert substrate and protective agent (4% HP-0 CD) after preincubation of all solutions at 68° C. followed by fluorescence data collection at 68° C.

[8] = target: T2, RNase A; experiment: Requirements for irreversible RNase inactivation (influenza B RNA APA in presence of RNase A); format: biochemical; conditions: 500 ng RNase A (10 μg/ml); additions 0.2% SDS, 10 mM DTT, 0.1% Triton X-100 as labelled; 2 minutes at 58° C.; then 4% βCD
[9] = tested on: nasal swab ribonucleases; experiment: Protection of RNA from nasal swab ribonucleases (influenza B RNA APA); format: biochemical, human; conditions: nasal swab eluate 4% of swab; 0.2% SDS with or without 10 mM DTT; 2 minutes at 58° C.; then 4% βCD
[10] = target: T2, RNase A; experiment: Influenza B virus APA assay with RNase A in ELB (Elution/Lysis Buffer); format: biochemical; conditions: RNAse A 10 μg/ml; 2 minutes 58° C. in ELB with 0.2% SDS, without or with 10 mM DTT; β-CD 4% final
Experimental: FIGS. 12A-12B depict data related to RNase A inactivation in an influenza B assay like the one in Example 4, with DTT in ELB (Elution/Lysis Buffer). […] After incubation, lyophilized APA reagents co-incubated 2 minutes 58° C., containing β-CD (4% final) were dissolved with the heated solutions, and FAM fluorescence collected every 15 seconds to monitor APA. […] The inclusion of DTT enables unimpeded operation of this POC influenza detection system in a mock sample containing very high level of purified RNase A ([…]). Moreover, while currently available methods can only achieve irreversible ribonuclease inactivation at a maximum 200 ng/ml, the compositions and methods provided herein show utility with 10 μg/ml to accommodate potentially larger amounts in patient samples.

[11] = target: T2, RNase A; experiment: RNase Alert assay of RNase A activity recovery after SDS/DTT pretreatment; format: biochemical
Experimental: 2 ng RNase A was incubated 2 minutes at 58° C. in […] solutions containing either 10 mM DTT+0.2% SDS (+), 0.2% SDS (triangle), 10 mM DTT (square), or neither (solid line) and then the RNase Alert assay was used to study the recovery of any RNase activity upon sequestration of SDS after dissolving lyophilized APA reagents without enzymes but containing RNase Alert substrate and protective agent (4% βCD) with continued incubation and fluorescence data collection at 58° C. In the presence of RNase activity, the RNase alert indicator substrate releases detectable fluorescence. […] FIG. 11A depicts recovery of RNase A activity after identical pretreatment without addition of βCD, in this case monitoring activity in […] of the solution by transfer to an RNase alert “wet” reaction format. […] Thus, as shown here, simultaneous treatment with ionic detergent and reducing agent is required for successful irreversible inactivation under the conditions described herein. […] Without being bound by any particular theory, this may be related to the impact of cyclodextrin and other APA additives on the refolding process. This example also provides further confirmation that the prior art and currently available methods (e.g, employing a reducing agent but no denaturant) are inadequate under these conditions, with an independent, commercially available RNase assay.

T1 sequence (Q56366 whole entry E143D): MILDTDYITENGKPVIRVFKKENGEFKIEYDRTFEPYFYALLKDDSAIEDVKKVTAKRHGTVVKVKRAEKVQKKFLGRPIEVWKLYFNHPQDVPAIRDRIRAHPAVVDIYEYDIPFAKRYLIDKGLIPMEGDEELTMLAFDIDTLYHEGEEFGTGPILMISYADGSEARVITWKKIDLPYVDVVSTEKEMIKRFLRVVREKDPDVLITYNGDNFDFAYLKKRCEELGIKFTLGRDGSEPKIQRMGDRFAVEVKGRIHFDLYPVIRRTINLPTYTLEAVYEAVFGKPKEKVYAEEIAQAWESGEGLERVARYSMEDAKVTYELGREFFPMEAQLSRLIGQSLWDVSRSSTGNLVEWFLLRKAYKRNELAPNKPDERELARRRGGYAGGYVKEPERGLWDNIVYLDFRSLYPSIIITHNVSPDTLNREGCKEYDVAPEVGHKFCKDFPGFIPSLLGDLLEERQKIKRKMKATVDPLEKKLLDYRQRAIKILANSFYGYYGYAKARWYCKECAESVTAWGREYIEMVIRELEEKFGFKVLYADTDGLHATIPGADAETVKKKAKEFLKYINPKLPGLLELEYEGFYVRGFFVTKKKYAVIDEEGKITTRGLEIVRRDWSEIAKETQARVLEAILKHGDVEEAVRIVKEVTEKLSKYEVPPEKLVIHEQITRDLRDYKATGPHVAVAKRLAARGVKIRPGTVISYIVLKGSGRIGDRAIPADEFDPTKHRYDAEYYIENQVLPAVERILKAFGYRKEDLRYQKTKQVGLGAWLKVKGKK

For hydroxypropyl-β-cyclodextrin [HP-βCD], the “SDS concentration tolerated by APA amplification in presence of the protective agent” value [1] was “at least 0.2%”, the “SDS concentration tolerated by APA amplification in presence of the protective agent” value ([1]; listed as hydroxypropyl β-CD) was no more than 0.2% and the “Restoration of assay performance in the presence of SDS” value [2] was “virtually complete restoration of assay performance”. The “Impact of persisting 0.4% ionic detergent on 9° Nm™ DNA polymerase-mediated amplification” value [3] was “had no impact”, the “Effect on APA amplification” value [4] was “restoring detection time, although with reduced plateau” and the “CTAB concentration completely tolerated by APA in presence of the protectant” value ([5]; with HP-βCD, lyophilized reactions) was “at least 0.2%”.
In the case of `OC[C@H]1O[C@@H]2O[C@H]3[C@H](O)[C@@H](O)[C@@H](O[C@H]4[C@H](O)[C@@H](O)[C@@H](O[C@H]5[C@H](O)[C@@H](O)[C@@H](O[C@H]6[C@H](O)[C@@H](O)[C@@H](O[C@H]7[C@H](O)[C@@H](O)[C@@H](O[C@H]1[C@H](O)[C@H]2O)O[C@@H]7CO)O[C@@H]6CO)O[C@@H]5CO)O[C@@H]4CO)O[C@@H]3CO` [α-Cyclodextrin], the water solubility [6] is given as 50 mg/mL (≈ 51.4 mM).
In the case of `CCCCCCCCCCCCCCCC[N+](C)(C)C.[Br-]` [CTAB, cetyltrimethylammonium bromide], the “RNase A inactivation, activity upon sequestration of the detergent” value ([7]; 0.2% CTAB only, RNase A 10 μg/ml and 1 μg/ml) is reported as “activity was rapidly restored”, the “RNase A activity after CTAB sequestration by 4% HP-βCD” value ([7]; without DTT) is reported as “immediate reversibility” and the “CTAB concentration giving complete inactivation of APA” value ([5]; absence of HP-βCD, 500 copies C. trachomatis total cell DNA) is reported as greater than 0.01%.
In the case of Triton X-100, the “Influenza B RNA detection by APA after RNase A pretreatment” value [8] is reported as “no RNA detection”.
With `O[C@H](CS)[C@H](O)CS` (racemic) [DTT, dithiothreitol] the “Influenza B RNA detection after nasal swab eluate pretreatment and SDS sequestration” value [9] was “restored detection”, the “RNase A inactivation, activity upon sequestration of the detergent” value ([7]; 0.2% CTAB with 10 mM DTT, 4% HP-βCD) was “effectively irreversibly inactivated” and the “RNase A activity after CTAB sequestration by 4% HP-βCD” value ([7]; with 10 mM DTT) was “no restored activity was detected”. For the same compound, the “Influenza B virus APA performance in presence of RNAse A” value [10] was “performance equivalent to a no RNAse A control”, the “Recovery of RNase A activity after pretreatment, with βCD” value ([11]; 2 ng RNase A, 2 minutes at 58° C., 10 mM DTT and/or 0.2% SDS, then 4% βCD) was “virtually full recovery of enzyme activity” and the “Recovery of RNase A activity after pretreatment, without addition of βCD” value ([11]; 10 mM DTT alone, wet RNase alert format) was “did not impact recovery of RNase A activity”.
